Experimental data taken from US20250241892A1, “5-METHOXY-N,N-[…][…] THE TREATMENT OF PSYCHOMOTOR RETARDATION” (GH RESEARCH IRELAND LIMITED, priority 2022, published 2025).

Tested on: patients with postpartum depression (PPD)
Assay: Clinical trial of inhaled 5-MeO-DMT in postpartum depression
Details: 1 patient
Protocol: The single-arm, open-label clinical trial will involve 15 adult female patients with clinically diagnosed postpartum depression (PPD).
The second dose (12 mg) will only be administered if: • a. A peak experience (total score of ⋅75) has not been achieved following the 6 mg dose, and • b. The 6 mg dose was safe and well-tolerated according to the investigator, • c. Any psychoactive effects (PsE) of the prior dose have subsided, and • d. Pre-dose vital parameters and forced expiratory volume in one second (FEV1) are in normal range, or if outside of the normal range, are not clinically significant according to the investigator. • 3. Similarly, a third dose (18 mg) will only be administered if: • a. A peak experience (total score of ⋅75) has not been achieved following the 12 mg dose, and • b. The 12 mg dose was safe and well-tolerated according to the investigator, and • c. Any PsE of the prior dose have subsided, and • d. Pre-dose vital parameters and forced expiratory volume in one second (FEV1) are in normal range, or if outside of the normal range, are not clinically significant according to the investigator.
The patients will be assessed for a peak psychedelic experience (based on a patient-scored visual analogue scale, the PE scale), sedation, and other endpoints after dosing. Follow-up visits are planned for Day 1, and Day 7 after the dosing day.
The following criteria must be met by all patients considered for clinical trial participation: • 1. Is female and in the age range between 18 and 45 years (inclusive) at screening. • 2. Has a body mass index (BMI) in the range of 18.5 and 35 kg/m^2 (inclusive) at screening. • 3. Meets the trial criteria for PPD as assessed by a trial psychiatrist or registered psychologist: • a. Diagnosis of Major Depressive Disorder without psychotic features, confirmed by the Mini-International Neuropsychiatric Interview (MINI), with peri-partum onset that began no earlier than gestation and no later than the first 4 weeks postpartum. • b. Has a Montgomery-Åsberg Depression Rating Scale (MADRS) total score of equal to or greater than 28 at screening and pre-dose on Day 0. • 6. […] Patients must have a negative pregnancy test at screening and on the pre-test day (Day −1). • 5. Is willing to delay start of other antidepressant or anxiety medication until after the end of the trial at Day 7 and agrees to keep any psychotherapy unchanged during the trial.
A potential patient who meets any of the following key exclusion criteria will be excluded from participation in this trial: • 1. Has, based on history, psychiatric assessment, and evaluation of the MINI, a current or prior diagnosis of bipolar disorder, a manic or hypomanic episode, a psychotic disorder, Major Depressive Disorder (MDD) or other mood disorder with psychotic features, obsessive compulsive disorder, post-traumatic stress disorder (PTSD), autism spectrum disorder, borderline personality disorder, schizophrenia, delusional disorder, paranoid personality disorder, schizoaffective disorder, clinically significant intellectual disability, or any other psychiatric comorbidity that renders the patient unsuitable for the trial according to the investigator's judgment. • 2. Has one or more first or second degree relatives with a current or previously diagnosed bipolar disorder, psychotic disorder or other mood disorder (including MDD) with psychotic features. • 3. Is in the judgement of a trial psychiatrist or registered psychologist, at significant risk for suicide based on history, psychiatric assessment, and evaluation of suicidal ideation and suicidal behaviour based on the Columbia-Suicide Severity Rating Scale (C-SSRS). • 4. Has taken anti-depressive medication within 14 days or 5 half-lives (whichever is longer) prior to dosing (exception: within the last 5 weeks in the case of fluoxetine). • 5.

## COc1ccc2[nH]cc(CCN(C)C)c2c1 [5-MeO-DMT]
  ECG (3 hours), safety laboratory analyses (7 days), CADSS (3 hours, 1 day, 7 days): unremarkable
  Reported adverse events (cramping left abdominal pain and headache, Day 0): mild, short-lasting and resolved spontaneously
  Standard criteria for MADRS remission (MADRS total score equal or less than 10): fulfilled
  Standard criteria for MADRS response (at least 50% improvement from baseline): fulfilled
  Tolerability of the inhalation procedure: well tolerated with no inhalation-related adverse events
2 hr vs baseline
  MADRS Apparent sadness improvement: 5
  MADRS Concentration Difficulties improvement: 0
  MADRS Inability to Feel improvement: 3
  MADRS Inner Tension improvement: 5
  MADRS Lassitude improvement: 3
  MADRS Pessimistic Thoughts improvement: 4
  MADRS Reduced Sleep improvement: 0
  MADRS Reduced appetite improvement: 0
  MADRS Reported sadness improvement: 4
  MADRS Suicidal Thoughts improvement: 0
2 hr, baseline 0
  MADRS Concentration Difficulties score: 0
  MADRS Reduced appetite score: 0
  MADRS Suicidal Thoughts score: 0
2 hr, baseline 3
  MADRS Inability to Feel score: 0
  MADRS Lassitude score: 0
2 hr, baseline 4
  MADRS Pessimistic Thoughts score: 0
  MADRS Reported sadness score: 0
2 hr, baseline 5
  MADRS Apparent sadness score: 0
  MADRS Inner Tension score: 0
  MADRS Reduced Sleep score: 5
Day 1, baseline 0
  MADRS Concentration Difficulties score: 0
  MADRS Reduced appetite score: 0
  MADRS Suicidal Thoughts score: 0
Day 1, baseline 1
  BPRS Blunted affect score: 1
  BPRS Conceptual disorganization score: 1
  BPRS Disorientation score: 1
  BPRS Grandiosity score: 1
  BPRS Hallucinatory behaviour score: 1
  BPRS Hostility score: 1
  BPRS Mannerisms and Posturing score: 1
  BPRS Motor retardation score: 1
  BPRS Suspiciousness score: 1
  BPRS Uncooperativeness score: 1
  BPRS Unusual Thought Content score: 1
Day 1, baseline 2
  BPRS Excitement score: 1
Day 1, baseline 3
  MADRS Inability to Feel score: 0
  MADRS Lassitude score: 0
Day 1, baseline 4
  MADRS Pessimistic Thoughts score: 0
  MADRS Reported sadness score: 0
Day 1, baseline 5
  BPRS Emotional withdrawal score: 1
  MADRS Apparent sadness score: 0
  MADRS Inner Tension score: 0
  MADRS Reduced Sleep score: 0
Day 1, baseline 6
  BPRS Depressive Mood score: 1
  BPRS Guilt feelings score: 1
  BPRS Somatic Concern score: 1
  BPRS Tension score: 1
Day 1, baseline 7
  BPRS Anxiety score: 1
Day 1 vs baseline
  BPRS Anxiety improvement: 6
  BPRS Blunted affect improvement: 0
  BPRS Conceptual disorganization improvement: 0
  BPRS Depressive Mood improvement: 5
  BPRS Disorientation improvement: 0
  BPRS Emotional withdrawal improvement: 4
  BPRS Excitement improvement: 1
  BPRS Grandiosity improvement: 0
  BPRS Guilt feelings improvement: 5
  BPRS Hallucinatory behaviour improvement: 0
  BPRS Hostility improvement: 0
  BPRS Mannerisms and Posturing improvement: 0
  BPRS Motor retardation improvement: 0
  BPRS Somatic Concern improvement: 5
  BPRS Suspiciousness improvement: 0
  BPRS Tension improvement: 5
  BPRS Uncooperativeness improvement: 0
  BPRS Unusual Thought Content improvement: 0
  MADRS Apparent sadness improvement: 5
  MADRS Concentration Difficulties improvement: 0
  MADRS Inability to Feel improvement: 3
  MADRS Inner Tension improvement: 5
  MADRS Lassitude improvement: 3
  MADRS Pessimistic Thoughts improvement: 4
  MADRS Reduced Sleep improvement: 5
  MADRS Reduced appetite improvement: 0
  MADRS Reported sadness improvement: 4
  MADRS Suicidal Thoughts improvement: 0
Day 7, Day 0 score 0
  BIMF item 2 (I feel rested) score: 2
  BIMF item 19 (getting better at taking care of my baby) score: 1
Day 7, Day 0 score 2
  BIMF item 18 (Anxiety or worry often interferes with my mothering ability) score: 5
Day 7, Day 0 score 3
  BIMF item 16 (I worry about how other people judge me) score: 5
Day 7, Day 0 score 4
  BIMF item 13 (taking good care of my physical needs) score: 5
Day 7, Day 0 score 5
  BIMF item 4 (My baby and I understand each other) score: 5
  BIMF item 5 (able to relax and enjoy time with my baby) score: 6
  BIMF item 9 (getting enough encouragement from other people) score: 6
  BIMF item 10 (I trust my own feelings (instincts)) score: 6
  BIMF item 11 (a little time each week to do something for myself) score: 6
  BIMF item 15 (My baby and I are getting into a routine) score: 6
  BIMF item 17 (able to take care of my baby and my other responsibilities) score: 5
Day 7, Day 0 score 6
  BIMF item 1 (I am a good mother) score: 6
  BIMF item 3 (comfortable with the way I've chosen to feed my baby) score: 6
  BIMF item 6 (people in my life that I can trust to care for my baby) score: 6
  BIMF item 8 (getting enough adult interaction) score: 6
  BIMF item 12 (taking good care of my baby's physical needs) score: 6
  BIMF item 14 (good decisions about my baby's health and well being) score: 6
  BIMF item 20 (satisfied with the job I am doing as a new mother) score: 5
Day 7, baseline 0
  MADRS Concentration Difficulties score: 0
  MADRS Reduced appetite score: 0
  MADRS Suicidal Thoughts score: 0
Day 7, baseline 1
  BPRS Blunted affect score: 1
  BPRS Conceptual disorganization score: 1
  BPRS Disorientation score: 1
  BPRS Grandiosity score: 1
  BPRS Hallucinatory behaviour score: 1
  BPRS Hostility score: 1
  BPRS Mannerisms and Posturing score: 1
  BPRS Motor retardation score: 1
  BPRS Suspiciousness score: 1
  BPRS Uncooperativeness score: 1
  BPRS Unusual Thought Content score: 1
Day 7, baseline 2
  BPRS Excitement score: 1
Day 7, baseline 3
  MADRS Inability to Feel score: 0
  MADRS Lassitude score: 0
Day 7, baseline 4
  MADRS Pessimistic Thoughts score: 0
  MADRS Reported sadness score: 0
Day 7, baseline 5
  BPRS Emotional withdrawal score: 1
  MADRS Apparent sadness score: 0
  MADRS Inner Tension score: 1
  MADRS Reduced Sleep score: 0
Day 7, baseline 6
  BPRS Depressive Mood score: 1
  BPRS Guilt feelings score: 1
  BPRS Somatic Concern score: 1
  BPRS Tension score: 1
Day 7, baseline 7
  BPRS Anxiety score: 1
Day 7 vs Day 0
  BIMF functional domain Adjustment Δ (Day 7): 1
  BIMF functional domain Infant Care Δ (Day 7): 0
  BIMF functional domain Management Δ (Day 7): 5
  BIMF functional domain Mother-Child Interaction Δ (Day 7): 2
  BIMF functional domain Psychological Well-being Δ (Day 7): 9
  BIMF functional domain Self Care Δ (Day 7): 4
  BIMF functional domain Social Support Δ (Day 7): 1
  BIMF item 1 (I am a good mother) Δ (Day 7): 0
  BIMF item 2 (I feel rested) Δ (Day 7): 2
  BIMF item 3 (comfortable with the way I've chosen to feed my baby) Δ (Day 7): 0
  BIMF item 4 (My baby and I understand each other) Δ (Day 7): 0
  BIMF item 5 (able to relax and enjoy time with my baby) Δ (Day 7): 1
  BIMF item 6 (people in my life that I can trust to care for my baby) Δ (Day 7): 0
  BIMF item 8 (getting enough adult interaction) Δ (Day 7): 0
  BIMF item 9 (getting enough encouragement from other people) Δ (Day 7): 1
  BIMF item 10 (I trust my own feelings (instincts)) Δ (Day 7): 1
  BIMF item 11 (a little time each week to do something for myself) Δ (Day 7): 1
  BIMF item 12 (taking good care of my baby's physical needs) Δ (Day 7): 0
  BIMF item 13 (taking good care of my physical needs) Δ (Day 7): 1
  BIMF item 14 (good decisions about my baby's health and well being) Δ (Day 7): 0
  BIMF item 15 (My baby and I are getting into a routine) Δ (Day 7): 1
  BIMF item 16 (I worry about how other people judge me) Δ (Day 7): 2
  BIMF item 17 (able to take care of my baby and my other responsibilities) Δ (Day 7): 0
  BIMF item 18 (Anxiety or worry often interferes with my mothering ability) Δ (Day 7): 3
  BIMF item 19 (getting better at taking care of my baby) Δ (Day 7): 1
  BIMF item 20 (satisfied with the job I am doing as a new mother) Δ (Day 7): −1
Day 7 vs baseline
  BPRS Anxiety improvement: 6
  BPRS Blunted affect improvement: 0
  BPRS Conceptual disorganization improvement: 0
  BPRS Depressive Mood improvement: 5
  BPRS Disorientation improvement: 0
  BPRS Emotional withdrawal improvement: 4
  BPRS Excitement improvement: 1
  BPRS Grandiosity improvement: 0
  BPRS Guilt feelings improvement: 5
  BPRS Hallucinatory behaviour improvement: 0
  BPRS Hostility improvement: 0
  BPRS Mannerisms and Posturing improvement: 0
  BPRS Motor retardation improvement: 0
  BPRS Somatic Concern improvement: 5
  BPRS Suspiciousness improvement: 0
  BPRS Tension improvement: 5
  BPRS Uncooperativeness improvement: 0
  BPRS Unusual Thought Content improvement: 0
  MADRS Apparent sadness improvement: 5
  MADRS Concentration Difficulties improvement: 0
  MADRS Inability to Feel improvement: 3
  MADRS Inner Tension improvement: 4
  MADRS Lassitude improvement: 3
  MADRS Pessimistic Thoughts improvement: 4
  MADRS Reduced Sleep improvement: 5
  MADRS Reduced appetite improvement: 0
  MADRS Reported sadness improvement: 4
  MADRS Suicidal Thoughts improvement: 0
Discharge vs baseline
  BPRS Anxiety improvement: 6
  BPRS Blunted affect improvement: 0
  BPRS Conceptual disorganization improvement: 0
  BPRS Depressive Mood improvement: 5
  BPRS Disorientation improvement: 0
  BPRS Emotional withdrawal improvement: 4
  BPRS Excitement improvement: 1
  BPRS Grandiosity improvement: 0
  BPRS Guilt feelings improvement: 5
  BPRS Hallucinatory behaviour improvement: 0
  BPRS Hostility improvement: 0
  BPRS Mannerisms and Posturing improvement: 0
  BPRS Motor retardation improvement: 0
  BPRS Somatic Concern improvement: 5
  BPRS Suspiciousness improvement: 0
  BPRS Uncooperativeness improvement: 0
  BPRS Unusual Thought Content improvement: 0
Discharge, baseline 1
  BPRS Blunted affect score: 1
  BPRS Conceptual disorganization score: 1
  BPRS Disorientation score: 1
  BPRS Grandiosity score: 1
  BPRS Hallucinatory behaviour score: 1
  BPRS Hostility score: 1
  BPRS Mannerisms and Posturing score: 1
  BPRS Motor retardation score: 1
  BPRS Suspiciousness score: 1
  BPRS Uncooperativeness score: 1
  BPRS Unusual Thought Content score: 1
Discharge, baseline 2
  BPRS Excitement score: 1
Discharge, baseline 5
  BPRS Emotional withdrawal score: 1
Discharge, baseline 6
  BPRS Depressive Mood score: 1
  BPRS Guilt feelings score: 1
  BPRS Somatic Concern score: 1
  BPRS Tension score: 1
Discharge, baseline 7
  BPRS Anxiety score: 1
Shortly after administration
  Changes in vital parameters: temporary, clinically non-relevant increase in heart rate and blood pressure
